Legend:
adjuvant arthritis model = experiment: Adjuvant Arthritis Test; type: in vivo, 7 week old female Lewis rats; parameters: concentration or dose not given beside the values; details: subcutaneous daily days 8-21; for Bone Destruction Inhibition Rate with respect to control group, Day 22: Day 22, soft X-ray score of left and right hind limbs; for Swelling Inhibition Rate with respect to Control Group, Day 21, Left / Swelling Inhibition Rate with respect to Control Group, Left (day 14 per footnote) / Swelling Inhibition Rate with respect to Control Group, Day 16, Left: left (adjuvant-injected) hind limb; for Swelling Inhibition Rate with respect to Control Group, Left (day 14 per footnote) / Swelling Inhibition Rate with respect to Control Group, Right (day 14 per footnote): day 14 (column head Day 16); for Swelling Inhibition Rate with respect to Control Group, Day 21, Right / Swelling Inhibition Rate with respect to Control Group, Right (day 14 per footnote) / Swelling Inhibition Rate with respect to Control Group, Day 16, Right: right hind limb
Experimental: Multiple arthritis resembling human chronic articular rheumatism occurs when tubercule bacillus adjuvant is injected into rats. The antiinflammatory, antirheumatic and bone metabolism improving action of compounds of the present invention were investigated according to the following procedure using this adjuvant arthritis model.
0.1 mg of dried non-viable Mycobacterium butyricum cells were suspended in 0.1 ml of liquid paraffin followed by injection into the skin of the left hind limb of 7 week old female Lewis rats. The compounds obtained in the Examples were dissolved in sterilized distilled water and administered subcutaneously every day for two weeks from the 8th to 21st days after injection of adjuvant. During that time, the volumes of the right and left hind limbs were measured and the swelling rate was calculated according to the following formula: [formula]
Moreover, the swelling inhibition rates were also determined according to the following formula, and those values are shown in Table 1. [formula]
Soft X-ray radiographs were taken of the left and right hind limbs of the animals following sacrifice on day 22. The degree of bone destruction at five locations in the left and right hind limbs was evaluated based on the soft X-ray radiographs scoring those results among 5 ranks. Moreover, the bone destruction inhibition rate was calculated using the following formula, and those values are shown in Table 1. [formula]
Those results that were significant at a level of significance of P<0.001 with respect to a control group administered only sterilized distilled water according to the Student's t-test and Chukey's multiple comparison method were indicated with three asterisks (***), those results that were significant at a level of significance of P<0.01 were indicated with two asterisks (**), and those significant at a level of significance of P<0.05 were indicated with one asterisk (*).
The swelling inhibition rates for Example 7 and Example 33 are the values for day 14 and day 21.

[1] = test system: active oxygen production by human neutrophils; experiment: Release of active oxygen from fMLP-stimulated human neutrophils (CLA luminescence); type: cell-based; details: Neutrophil, 10 μM compound, fMLP stimulation, read-out: Active Oxygen Production Inhibition Rate
Source text: Neutrophils are known to function in the body defense reactions by phagocytosis of foreign bodies to remove them and production of active oxygen and digestive enzymes. However, the active oxygen and digestive enzymes produced by neutrophils also damage normal tissue during chronic inflammations and so forth. Moreover, they are also considered to exacerbate the inflammation. The action of compounds of the present invention was therefore measured with respect to the release of active oxygen from human neutrophils.
50 ml of human blood were drawn from a vein using 3.8% sodium citrate as anticoagulant. Equal volumes of this blood and a physiological saline solution containing 2% dextran were mixed and allowed to stand undisturbed for 30 minutes at 37° C. after shaking several times. The upper layer was separated and layered onto an equal volume of Ficoll-Paque solution. After centrifuging for 30 minutes at 1400 rpm and 20° C., the supernatant was removed and the cells were resuspended with Hanks buffer. […] The maximum amount of light emitted was then determined by a luminometer taking advantage of the phenomenon in which this excited carbonyl form emits light at 380 nm in the process of transition to the ground state. The active oxygen production inhibition rate was then calculated using the formula indicated below. […]

[2] = test system: osteoclasts (mouse bone cells), resorption pit formation; experiment: Bone resorption pit formation by mouse bone cells (osteoclasts) on ivory, active type-vitamin D3 stimulation; type: cell-based, ICR mice; details: 10 nM active type-vitamin D3, 4 days
Source text: The balance between bone formation and bone destruction is disturbed during osteoporosis, with bone destruction considered to be accelerated. Bone destruction is believed to occur due to an increase in the activation and number of osteoclasts. Experiments have been conducted wherein bone resorption was induced with active type-vitanium D3 stimulation using mouse bone cells dispersed on ivory for the experimental model. The bone resorption inhibitory action of compounds of the present invention was measured using this model.
After isolating the femur and tibia from 10-15 day old ICR mice, the bone specimens were prepared into thin sections in α-MEM medium containing 5% fetal bovine serum to prepare an bone cells suspension containing marrow cells and bone matrix. Large fragments of bone were removed with nylon mesh. Viable total cells were counted with trypan blue exclusion test while osteoclasts were stained with tartaric acid-resistantacid phosphatase stain to prepare a cell suspension containing osteoclasts in a proportion of roughly 0.05-0.1%. The ivory was cut into thin sections having a thickness of 150 μm using a low-speed rotary diamond cutter. The thin sections were then punched to a size that matched the size of the wells of a 96 well plate. These ivory fragments were placed in a 96 well plate followed by addition of the cell suspension prepared above so that each well contained 500 osteoclasts. 10 nM active type-vitamin D3 was added as stimulant simultaneous to addition of the drugs of the present invention at concentrations of 10 μM and 100 μM. After culturing the cells for 4 days at 37° C. in an environment of 10% CO2, the resorption pits that formed on the ivory slices were stained with hematoxylin and counted by observing microscopically. The resorption pit formation inhibition rate was then calculated using the formula indicated below. [formula]
The results were statistically processed using the Student's t-test, and those results that were significant at a level of significance of P<0.05 with respect to an active type-vatanium D3 stimulation control group were indicated with one asterisk (*), while those results that were significant at a level of significance of P<0.01 were indicated with two asterisks (**).

[3] = test system: IL-1 production by J774-1 mouse macrophage cells; experiment: Action on IL-1 Production by Strain J774-1 Mouse Macrophage Cells (LPS stimulated); type: cell-based; details: 100 μM compound, LPS 1 μg/ml, 24 hours, read-out: IL-1 Production Inhibition Rate with respect to Control Group
Experimental: It is also known that these cells produce IL-1 when stimulated with LPS. The inhibitory action on IL-1 production of compounds of the present invention was measured according to the following procedure using this cell line.
The J774-1 cells were cultured in RPMI-1640 medium containing 10% fetal bovine serum and 50 μM 2-mercaptoethanol followed by adjusting the number of cells to 2×10^5 cells/ml. 1 ml aliquots of this cell suspension were then placed in the wells of a 24 well plate and cultured for 30 minutes. Following culturing, LPS was added to a final concentration of 1 μg/ml. At the same time, compounds obtained in Examples were dissolved in sterilized distilled water and added at a concentration of 100 μM. […]
The samples obtained above were serially diluted by a factor of 2 in a 96 well multiplate at a capacity of 50 μl. […] The thymus cells were then cultured for 72 hours and IL-1 activity was determined from the growth rate of the cells. […] Using the absorbance of the pigment produced by this reduction at 570 nm as the index, the dilution factor of the sample when growth of thymus cells is induced by 50% was calculated in terms of the number of units of that sample by taking the case of induction of maximum growth of T cells by human gene recombinant IL-1 to be 100% growth, and growth in the case of not adding IL-1 to be 0%. […]

Row | SMILES | Bone Destruction Inhibition Rate with respect to control group, Day 22 (adjuvant arthritis model) [%] | Swelling Inhibition Rate with respect to Control Group, Day 21, Left (adjuvant arthritis model) [%] | Swelling Inhibition Rate with respect to Control Group, Left (day 14 per footnote) (adjuvant arthritis model) [%] | Swelling Inhibition Rate with respect to Control Group, Day 21, Right (adjuvant arthritis model) [%] | Swelling Inhibition Rate with respect to Control Group, Right (day 14 per footnote) (adjuvant arthritis model) [%] | inhibition at 10 µM [1] [%] | resorption pit formation Inhibition Rate with respect to Control Group ([2]; 10 μM compound) [%] | resorption pit formation Inhibition Rate with respect to Control Group ([2]; 100 μM compound) [%] | inhibition at 100 µM [3] [%] | Swelling Inhibition Rate with respect to Control Group, Day 16, Left (adjuvant arthritis model) [%] | Swelling Inhibition Rate with respect to Control Group, Day 16, Right (adjuvant arthritis model) [%]
1 | CSc1cccc(SC(P(=O)(O)O)P(=O)(O)O)c1 [Example 7, (3-methylthiophenyl)thiomethanediphosphonic Acid] | 43.7 | 72.7 | 48.6 | 24.2 | 15.0 |  |  |  |  |  | 
2 | CSc1ccccc1SC(P(=O)(O)O)P(=O)(O)O [Example 9, (2-methylthiophenyl)thiomethanediphosphonic Acid] |  |  |  |  |  | 46.3 ± 0.81 | 35.8 ± 27.0 | 77.8 ± 3.59 |  |  | 
3 | CC(C)Sc1ccc(SC(P(=O)(O)O)P(=O)(O)O)cc1 [Example 13, (4-isopropylthiophenyl)thiomethanediphosphonic Acid] | 62.5 | 91.8 |  | 28.7 |  |  | 54.6 ± 10.4 | 92.5 ± 0.61 | 38.6 | 76.9 | 16.8
4 | O=P(O)(O)C(Sc1ccc(Sc2ccccc2)cc1)P(=O)(O)O [Example 15, (4-phenylthiophenyl)thiomethanediphosphonic Acid] | 33.7 | 73.8 |  | 33.7 |  |  | 30.5 ± 22.9 | 74.1 ± 4.38 |  | 75.0 | 28.1
5 | CSc1ccc(C=C(P(=O)(O)O)P(=O)(O)O)cc1 [Example 28, 2-(4-methylthiophenyl)ethynilidene-1,1-diphosphonic acid] |  |  |  |  |  |  | -0.34 ± 10.1 | 67.8 ± 3.98 |  |  | 
6 | CSc1ccc(CC(P(=O)(O)O)P(=O)(O)O)cc1 [Example 30, 2-(4-methylthiophenyl)ethane-1,1-diphosphonic acid] |  |  |  |  |  |  | 35.6 ± 11.3 | 87.0 ± 4.34 |  |  | 
7 | CSc1ccc(SCCCC(O)(P(=O)(O)O)P(=O)(O)O)cc1 [Example 33, disodium 4-(4-methylthiophenyl)thio-1-hydroxy-butylidene-1,1-diphosphonate] | 77.1 | 138.0 | 115.0 | 66.1 | 63.5 |  |  |  |  |  | 

— patent US5527940A, “Methanediphosphonate derivative, its manufacturing process and its pharmaceutical applications” (Toray Industries, Inc., priority 1991, dated 1996)
